Test results from ChEMBL document CHEMBL3217647, “Prospective use of molecular field points in ligand-based virtual screening: efficient identification of new reversible Cdc25 inhibitors” (Medchemcomm, 2013).

biological target: T1, M-phase inducer phosphatase 1 (Homo sapiens, UniProt P30304); test: Inhibition of Cdc25A (unknown origin) phosphatase activity assessed as fluorescence by BMG plate reader in the presence of 0.005% Tween-20
T1 sequence (P30304 whole entry): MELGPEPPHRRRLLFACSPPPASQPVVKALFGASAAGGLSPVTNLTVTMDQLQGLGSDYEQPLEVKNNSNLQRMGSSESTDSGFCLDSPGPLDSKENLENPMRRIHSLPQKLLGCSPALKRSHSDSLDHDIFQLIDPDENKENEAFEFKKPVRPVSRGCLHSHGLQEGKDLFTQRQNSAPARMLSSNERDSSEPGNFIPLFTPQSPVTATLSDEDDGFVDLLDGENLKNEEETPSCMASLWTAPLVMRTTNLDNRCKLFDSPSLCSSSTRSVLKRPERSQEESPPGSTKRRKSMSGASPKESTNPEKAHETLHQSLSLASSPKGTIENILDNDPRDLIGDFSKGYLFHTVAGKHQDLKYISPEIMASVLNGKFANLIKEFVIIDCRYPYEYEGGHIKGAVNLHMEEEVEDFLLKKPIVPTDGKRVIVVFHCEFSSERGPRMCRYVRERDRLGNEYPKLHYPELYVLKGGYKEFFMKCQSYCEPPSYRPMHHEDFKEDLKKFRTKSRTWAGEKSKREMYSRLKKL

**Q.** How did the IC50 turn out when `COc1ccc(-c2nc(-c3cnc(N)nc3)cs2)cc1` was run?
**A.** The IC50 was 25 µM.

**Q.** For `O=C(Nc1cccc(-c2csc(-c3ccccc3)n2)c1)c1cccc(=O)[nH]1`, which IC50 is on record?
**A.** Its IC50 is 6.9 µM.

**Q.** `N#Cc1ccc(-c2csc(-c3ccc(-c4csnn4)cc3)n2)cc1` was tested. Which IC50 did it give?
**A.** The IC50 was 12.2 µM.

**Q.** Which IC50 does the source give for `O=C(/C=C/c1ccc2c(c1)OCO2)Nc1nc(-c2ccc(F)cc2F)cs1` here?
**A.** The IC50 was 7.5 µM.

**Q.** `O=C(CCC(=O)NC1CCCC1)Nc1nc(-c2cc3ccccc3oc2=O)cs1` was tested. Which IC50 did it give?
**A.** The IC50 was 12.3 µM.

**Q.** For `O=S(=O)(Cc1ccco1)Cc1nc(-c2ccc(-c3ccccc3)cc2)cs1`, which IC50 is on record?
**A.** Its IC50 is 2.7 µM.

**Q.** For `O=c1[nH]c2cc(S(=O)(=O)Nc3cccc(-c4csc(-c5ccccc5)n4)c3)ccc2o1`, which IC50 is on record?
**A.** The IC50 was 2.2 µM.

**Q.** How did the IC50 turn out when `O=C1C(=O)c2c(C(=O)c3ccccc3)coc2-c2ccccc21` was run?
**A.** Its IC50 is 5 µM.

**Q.** How did the IC50 turn out when `O=C(Nc1nc(-c2ccc(F)cc2)cs1)c1cnccn1` was run?
**A.** The IC50 was 25.7 µM.

biological target: T2, M-phase inducer phosphatase 3 (Homo sapiens, UniProt P30307); test: Inhibition of Cdc25C (unknown origin) phosphatase activity assessed as fluorescence by BMG plate reader in the presence of 0.005% Tween-20
T2 sequence (P30307 whole entry): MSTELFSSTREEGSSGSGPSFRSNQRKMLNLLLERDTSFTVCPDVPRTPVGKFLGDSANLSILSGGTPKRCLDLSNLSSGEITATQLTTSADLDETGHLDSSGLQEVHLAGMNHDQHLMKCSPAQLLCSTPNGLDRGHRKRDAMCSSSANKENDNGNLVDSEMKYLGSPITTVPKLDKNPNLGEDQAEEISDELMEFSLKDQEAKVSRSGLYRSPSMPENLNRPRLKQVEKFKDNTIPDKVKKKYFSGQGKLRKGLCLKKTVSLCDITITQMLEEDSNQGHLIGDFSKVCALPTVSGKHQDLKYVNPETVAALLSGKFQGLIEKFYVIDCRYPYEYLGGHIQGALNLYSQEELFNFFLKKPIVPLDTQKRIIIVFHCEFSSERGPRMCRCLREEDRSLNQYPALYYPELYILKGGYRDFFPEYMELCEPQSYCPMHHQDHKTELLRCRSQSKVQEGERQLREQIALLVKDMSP

**Q.** Which IC50 does the source give for `COc1ccc(-c2nc(-c3cnc(N)nc3)cs2)cc1` here?
**A.** Its IC50 is over 100 µM.

**Q.** For `O=C(Nc1cccc(-c2csc(-c3ccccc3)n2)c1)c1cccc(=O)[nH]1`, which IC50 is on record?
**A.** Its IC50 is 8.6 µM.

**Q.** `N#Cc1ccc(-c2csc(-c3ccc(-c4csnn4)cc3)n2)cc1` was tested. Which IC50 did it give?
**A.** Its IC50 is 8.8 µM.

**Q.** How did the IC50 turn out when `O=C(/C=C/c1ccc2c(c1)OCO2)Nc1nc(-c2ccc(F)cc2F)cs1` was run?
**A.** Its IC50 is 11 µM.

**Q.** How did the IC50 turn out when `O=C(CCC(=O)NC1CCCC1)Nc1nc(-c2cc3ccccc3oc2=O)cs1` was run?
**A.** Its IC50 is 9.4 µM.

**Q.** For `O=S(=O)(Cc1ccco1)Cc1nc(-c2ccc(-c3ccccc3)cc2)cs1`, which IC50 is on record?
**A.** Its IC50 is 9.7 µM.

**Q.** How did the IC50 turn out when `O=c1[nH]c2cc(S(=O)(=O)Nc3cccc(-c4csc(-c5ccccc5)n4)c3)ccc2o1` was run?
**A.** Its IC50 is 44.4 µM.

**Q.** With `O=C1C(=O)c2c(C(=O)c3ccccc3)coc2-c2ccccc21` as the compound, how does the IC50 read?
**A.** The IC50 was 5 µM.

**Q.** With `O=C(Nc1nc(-c2ccc(F)cc2)cs1)c1cnccn1` as the compound, how does the IC50 read?
**A.** Its IC50 is 40 µM.

biological target: Dual specificity protein phosphatase 3 (Homo sapiens, UniProt P51452); test: Inhibition of human His-tagged VHR phosphatase activity assessed as fluorescence by BMG plate reader in the presence of 0.005% Tween-20
Sequence (P51452 whole entry): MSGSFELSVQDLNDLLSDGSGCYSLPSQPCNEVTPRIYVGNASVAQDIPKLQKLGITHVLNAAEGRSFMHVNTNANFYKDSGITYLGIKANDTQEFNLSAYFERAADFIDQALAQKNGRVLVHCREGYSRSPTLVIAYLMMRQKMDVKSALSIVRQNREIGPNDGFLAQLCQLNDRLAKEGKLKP

**Q.** Which IC50 does the source give for `COc1ccc(-c2nc(-c3cnc(N)nc3)cs2)cc1` here?
**A.** The IC50 was over 100 µM.

**Q.** With `O=C(Nc1cccc(-c2csc(-c3ccccc3)n2)c1)c1cccc(=O)[nH]1` as the compound, how does the IC50 read?
**A.** Its IC50 is over 100 µM.

**Q.** With `N#Cc1ccc(-c2csc(-c3ccc(-c4csnn4)cc3)n2)cc1` as the compound, how does the IC50 read?
**A.** The IC50 was over 100 µM.

**Q.** `O=C(/C=C/c1ccc2c(c1)OCO2)Nc1nc(-c2ccc(F)cc2F)cs1` was tested. Which IC50 did it give?
**A.** The IC50 was 65.7 µM.

**Q.** Which IC50 does the source give for `O=C(CCC(=O)NC1CCCC1)Nc1nc(-c2cc3ccccc3oc2=O)cs1` here?
**A.** Its IC50 is 24.9 µM.

**Q.** For `O=S(=O)(Cc1ccco1)Cc1nc(-c2ccc(-c3ccccc3)cc2)cs1`, which IC50 is on record?
**A.** The IC50 was 26 µM.

**Q.** How did the IC50 turn out when `O=c1[nH]c2cc(S(=O)(=O)Nc3cccc(-c4csc(-c5ccccc5)n4)c3)ccc2o1` was run?
**A.** Its IC50 is 34.8 µM.

**Q.** How did the IC50 turn out when `O=C(Nc1nc(-c2ccc(F)cc2)cs1)c1cnccn1` was run?
**A.** Its IC50 is over 100 µM.

biological target: T3, M-phase inducer phosphatase 2 (Homo sapiens, UniProt P30305); test: Inhibition of Cdc25B (unknown origin) phosphatase activity assessed as fluorescence by BMG plate reader in the presence of 0.005% Tween-20
T3 sequence (P30305 whole entry): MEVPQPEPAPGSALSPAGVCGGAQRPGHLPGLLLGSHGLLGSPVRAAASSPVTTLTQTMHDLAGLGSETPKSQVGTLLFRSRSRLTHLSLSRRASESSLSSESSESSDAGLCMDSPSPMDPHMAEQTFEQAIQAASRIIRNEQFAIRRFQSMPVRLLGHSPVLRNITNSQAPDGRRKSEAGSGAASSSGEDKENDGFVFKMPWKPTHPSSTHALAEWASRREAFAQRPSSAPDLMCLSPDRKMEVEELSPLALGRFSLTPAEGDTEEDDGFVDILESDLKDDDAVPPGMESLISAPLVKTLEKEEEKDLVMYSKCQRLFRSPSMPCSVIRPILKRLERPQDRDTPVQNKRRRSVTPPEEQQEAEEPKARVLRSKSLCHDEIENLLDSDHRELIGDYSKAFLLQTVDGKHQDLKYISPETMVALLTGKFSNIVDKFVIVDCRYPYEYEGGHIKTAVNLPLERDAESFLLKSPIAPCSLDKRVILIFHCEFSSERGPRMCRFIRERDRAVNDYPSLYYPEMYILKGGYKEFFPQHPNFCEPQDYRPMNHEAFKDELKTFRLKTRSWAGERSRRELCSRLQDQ

**Q.** For `CCOC(=O)C1=C(C)N=c2s/c(=C\c3ccc(O)cc3)c(=O)n2C1c1ccc2c(c1)OCO2` (configuration not stated), which IC50 is on record?
**A.** Its IC50 is 13 µM.

**Q.** How did the IC50 turn out when `COc1ccc(-c2nc(-c3cnc(N)nc3)cs2)cc1` was run?
**A.** Its IC50 is 19.7 µM.

**Q.** `CCOc1ccc(-c2nn(-c3ccccc3)cc2/C=C2\SC(=O)N(C)C2=O)cc1Br` was tested. Which IC50 did it give?
**A.** The IC50 was 2 µM.

**Q.** For `O=C(Nc1cccc(-c2csc(-c3ccccc3)n2)c1)c1cccc(=O)[nH]1`, which IC50 is on record?
**A.** Its IC50 is 4.2 µM.

**Q.** With `N#Cc1ccc(-c2csc(-c3ccc(-c4csnn4)cc3)n2)cc1` as the compound, how does the IC50 read?
**A.** Its IC50 is 3.1 µM.

**Q.** For `O=C(/C=C/c1ccc2c(c1)OCO2)Nc1nc(-c2ccc(F)cc2F)cs1`, which IC50 is on record?
**A.** Its IC50 is 2.69 µM.

**Q.** How did the IC50 turn out when `O=C(CCC(=O)NC1CCCC1)Nc1nc(-c2cc3ccccc3oc2=O)cs1` was run?
**A.** Its IC50 is 5.9 µM.

**Q.** With `O=S(=O)(Cc1ccco1)Cc1nc(-c2ccc(-c3ccccc3)cc2)cs1` as the compound, how does the IC50 read?
**A.** The IC50 was 1.7 µM.

**Q.** With `O=c1[nH]c2cc(S(=O)(=O)Nc3cccc(-c4csc(-c5ccccc5)n4)c3)ccc2o1` as the compound, how does the IC50 read?
**A.** Its IC50 is 3.5 µM.

**Q.** With `O=C1C(=O)c2c(C(=O)c3ccccc3)coc2-c2ccccc21` as the compound, how does the IC50 read?
**A.** The IC50 was 5 µM.

**Q.** For `O=C(Nc1nc(-c2ccc(F)cc2)cs1)c1cnccn1`, which IC50 is on record?
**A.** Its IC50 is 16 µM.
